According to patent publication US11384063B2, “Modulators of estrogen receptor proteolysis and associated methods of use” (Arvinas Operations, Inc., priority 2017, dated 2022):

Columns and labels:
[1] = target: T1, ERα (Homo sapiens, UniProt P03372); test: ERE luciferase reporter gene assay in T47D-KBluc cells (target engagement); assay type: cell-based; design: T47D human breast cancer cells stably transfected with estrogen responsive element/promoter/luciferase reporter gene; host or cells: T47D-KBluc cells; conditions: 10% FBS, 24 hours, Table 3 cereblon centric PROTACs, read-out: ER-α Luciferase IC50
T1 sequence (P03372 1-595): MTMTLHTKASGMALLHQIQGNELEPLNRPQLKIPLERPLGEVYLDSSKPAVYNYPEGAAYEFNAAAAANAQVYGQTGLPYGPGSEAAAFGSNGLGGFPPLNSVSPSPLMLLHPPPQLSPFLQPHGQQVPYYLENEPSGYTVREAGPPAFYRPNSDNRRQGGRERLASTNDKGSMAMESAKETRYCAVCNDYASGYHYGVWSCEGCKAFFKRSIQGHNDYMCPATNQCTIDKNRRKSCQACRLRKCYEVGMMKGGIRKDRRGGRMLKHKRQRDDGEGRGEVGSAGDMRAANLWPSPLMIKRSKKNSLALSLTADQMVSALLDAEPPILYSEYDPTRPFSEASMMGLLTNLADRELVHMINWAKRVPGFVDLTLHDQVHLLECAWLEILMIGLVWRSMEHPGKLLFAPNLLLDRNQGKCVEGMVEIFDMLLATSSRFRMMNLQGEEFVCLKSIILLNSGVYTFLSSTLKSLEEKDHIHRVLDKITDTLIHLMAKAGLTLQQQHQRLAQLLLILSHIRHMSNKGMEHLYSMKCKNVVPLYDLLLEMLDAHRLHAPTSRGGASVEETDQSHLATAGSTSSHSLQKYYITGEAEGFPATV
Summary of the method: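 T47D-KBluc breast cancer cells, which carry a stable ERE-luciferase reporter, were grown in RPMI with 10% FBS (about 10 pM estrogen) and exposed to PROTACs for 24 h. The 12-point, 3-fold series ran from 300 nM to 2 pM. Luciferase was read after lysis, and IC50 was fitted from duplicates.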

[2] = target: T1, ERα; test: Estrogen receptor-alpha (ERα) degradation assay in MCF7 cells using In-Cell Western assay; assay type: cell-based; design: assessed for their activity in degrading ERα in MCF-7 cells via western blot; endogenous in cells; host or cells: MCF7 cells; conditions: ER-alpha degradation in MCF7 cells, 5 days of incubation
Protocol: Estrogen Receptor-Alpha (ERα) Degradation Assay Using in-Cell Western™ Assay for Table 5.
Degradation of ERα by claimed compounds were determined in MCF7 cells using an In-Cell Western™ assay. Briefly, MCF7 cells were plated in 96-well plates (2000 cells per well in 100 μl media) and incubated at 37° C. under an atmosphere of 5% CO2 in a humidified incubator overnight. One-hundred (100) μI of media containing test compound (at 2x concentration) was added to the appropriate wells to provide 11 serially decreasing concentrations (top final concentration, 1 μM then 3-fold less for the next 10 concentrations); a vehicle control (DMSO) was also added for each compound. For each experiment, all compounds were assayed on duplicate plates. Cells were then incubated for 3 or 5 days in the above-mentioned environment. The assay was terminated by removal of media, a single wash with ice-cold PBS and the addition of 50 μl paraformaldehyde (PFA: 4% in PBS). After 15 minutes in PFA at room temperature, the cells were permeabilized in Tris-phosphate-buffered saline with Tween (0.1%) (TBST) supplemented with Triton X-100 (0.5%) for 15 minutes. Cells were then blocked in BSA (TBST with BSA, 3%) for one hour. Primary antibodies for the detection of ERa (rabbit monoclonal, 1:1000, Cell Signaling Technology Catalog #8644) and tubulin (mouse monoclonal, 1:5000, Sigma Catalog #T6074) in TBST with BSA (3%) were added. The cells were incubated overnight at 4° C. The cells were then washed thrice with TBST at room temperature and then incubated with anti-rabbit and anti-mouse fluorescently-labelled secondary antibodies (IRDye®; LI-COR; Lincoln, Nebr.) in LI-COR blocking buffer (Catalog #927-50000) for one hour at room temperature. Following 3 washes with TBST, the buffer was removed and the plates were read on an Odyssey® infrared imaging system (LI-COR®, Lincoln, Nebr.) at 700 nm and 800 nm. Using commercial software (ImageStudio™; LI-COR, Lincoln, Nebr.), the staining intensity for ERa and tubulin in each well was quantified and exported for analysis. For each data point, ERa intensity was normalized to tubulin intensity and for each compound all normalized intensity values were normalized to the vehicle control. DC50 and Dmax values were determined following a 4-parameter IC50 curve fit using ACAS dose response module (McNeil & Co Inc.).

Row | IC50 [1] [nM] | DC50 [2] [nM] | Dmax [2] [%] | Compound
1 | 5.3 | 1 to 10 | 50 to 75 | O=C1CCC(N2Cc3cc(N4CCN(CCCCc5ccc(Oc6c(-c7ccc(Br)cc7)sc7cc(O)ccc67)cc5)CC4)ccc3C2=O)C(=O)N1 (centres unmarked) [Compound 215, 3-[5-[4-[4-[4-[2-(4-bromophenyl)-6-hydroxybenzothiophen-3-yl]oxyphenyl]butyl]piperazin-1-yl]-1-oxo-isoindolin-2-yl]piperidine-2,6-dione]
2 | 2.7 | 1 to 10 | 50 to 75 | O=C1CCC(N2Cc3cc(N4CCC(CN5CC(c6ccc(Oc7c(-c8ccc(Br)cc8)sc8cc(O)ccc78)cc6)C5)CC4)ccc3C2=O)C(=O)N1 (centres unmarked) [Compound 216, 3-[5-[4-[[3-[4-[2-[4-bromophenyl)-6-hydroxy-benzothiophen-3-yl]oxyphenyl]azetidin-1-yl]methyl]-1-piperidyl]-1-oxo-isoindolin-2-yl]piperidine-2,6-dione]
3 | 7.5 | 1 to 10 | 50 to 75 | O=C1CCC(N2Cc3cc(N4CCN(CCCOc5ccc(Oc6c(-c7ccc(OC(F)(F)F)cc7)sc7cc(O)ccc67)cc5)CC4)ccc3C2=O)C(=O)N1 (centres unmarked) [Compound 217, 3-[5-[4-[3-[4-[6-hydroxy-2-[4-(trifluoromethoxy)phenyl]benzothiophen-3-yl]oxyphenoxy]propyl]piperazin-1-yl]-1-oxo-isoindolin-2-yl]piperidine-2,6-dione]
4 | 1.5 | 1 to 10 | 50 to 75 | O=C1CCC(N2Cc3cc(N4CCN(CCCOc5ccc(Oc6c(-c7ccc(F)cc7)sc7cc(O)ccc67)cc5)CC4)ccc3C2=O)C(=O)N1 (centres unmarked) [Compound 220, 3-[5-[4-[3-[4-[2(4-fluorophenyl)-6-hydroxybenzothiophen-3-yl]oxyphenoxy]propyl]piperazin-1-yl]-1-oxo-isoindolin-2-yl]piperidine-2,6-dione]
5 | 2.4 | 1 to 10 | 50 to 75 | O=C1CCC(N2Cc3cc(N4CCN(CCCOc5ccc(Oc6c(-c7ccc(F)c(F)c7)sc7cc(O)ccc67)cc5)CC4)ccc3C2=O)C(=O)N1 (centres unmarked) [Compound 221, 3-[5-[4-[3-[4-[2-(3,4-difluorophenyl)-6-hydroxy-benzothiophen-3-yl]oxyphenoxy]propyl]piperazin-1-yl]-1-oxo-isoindolin-2-yl]piperidine-2,6-dione]

Continued, molecule first:

Row | Compound | IC50 [1] [nM] | DC50 [2] [nM] | Dmax [2] [%]
6 | O=C1CCC(N2Cc3c(cc(F)c(N4CCN(C5CCN(CCOc6ccc(Oc7c(-c8ccc(Br)cc8)sc8cc(O)ccc78)cc6)CC5)CC4)c3F)C2=O)C(=O)N1 (centres unmarked) [Compound 205, 3-[5-[4-[1-[2-[4-[2-(4-bromophenyl)-6-hydroxybenzothiophen-3-yl]oxyphenoxy]ethyl]-4-piperidyl]piperazin-1-yl]-4,6-difluoro-1-oxo-isoindolin-2-yl]piperidine-2,6-dione] | 3.5 | 10 to 100 | > 75
7 | O=C1CCC(N2C(=O)c3ccc(N4CC(N5CCC(Oc6ccc(Oc7c(-c8ccc(Br)cc8)sc8cc(O)ccc78)cc6)CC5)C4)cc3C2=O)C(=O)N1 (centres unmarked) [Compound 213, 5-[3-[4-[4-[2-(4-bromophenyl)-6-hydroxybenzothiophen-3-yl]oxyphenoxy]-1-pipendyl]azetidin-1-yl]2-(2,6-dioxo-3-piperidyl)isoindoline-1,3-dione] | 11.2 |  | < 50
8 | O=C1CCC(N2C(=O)c3ccc(N4CCC(CN5CC(c6ccc(Oc7c(-c8ccc(Br)cc8)sc8cc(O)ccc78)cc6)C5)CC4)cc3C2=O)C(=O)N1 (centres unmarked) [Compound 214] | 10.4 | 1 to 10 | 50 to 75
9 | O=C1CCC(N2C(=O)c3ccc(N4CCN([C@H]5C[C@H](Oc6ccc(Oc7c(-c8ccc(Br)cc8)sc8cc(O)ccc78)cc6)C5)CC4)cc3C2=O)C(=O)N1 (stereo partly drawn) [Compound 223, trans-5-[4-[3-[4-[2-(4-bromophenyl)-6-hydroxy-benzothiophen-3-yl]oxyphenoxy]cyclobutyl]piperazin-1-yl]-2-(2,6-dioxo-3-piperidyl)isoindoline-1,3-dione] | 41.1 | 10 to 100 | > 75
